System: Septoria tritici—SEPTTR
Experiment: Leaf Blotch of Wheat, in vivo whole plant, 24 Hour Protectant
Details: Zymoseptoria tritici, 24 h, 100 ppm spray, 24 hour protectant, wheat; control of fungal infection vs untreated plants; read-out: SEPTTR in vivo 1 Day Protectant

For `COc1ccnc(C(=O)NC2CCCC2=O)c1O` (centres unmarked) [Compound 249], which pest or weed control at 100 ppm is on record?
The pest or weed control at 100 ppm was 25 to 74%.

Which pest or weed control at 100 ppm does the source give for `CCCCCCCCCNC(=O)c1ncccc1O` [Compound 201] here?
Its pest or weed control at 100 ppm is < 25%.

Same assay, conditions: Zymoseptoria tritici, 24 h, 100 ppm spray, wheat, 24 hour protectant; control of fungal infection vs untreated plants; read-out: SEPTTR in vivo 1 Day Protectant

How did the pest or weed control at 100 ppm turn out when `COc1ccnc(C(=O)Nc2cccc(Oc3ccc(Cl)cc3)c2)c1O` [Compound 440] was run?
The pest or weed control at 100 ppm was 25 to 74%.

How did the pest or weed control at 100 ppm turn out when `COC(=O)C(CO)NC(=O)c1nccc(OC)c1O` (centres unmarked) [Compound 340] was run?
The pest or weed control at 100 ppm was < 25%.

System: Stagonospora nodorum (Leptosphaeria nodorum—LEPTNO)
Experiment: In vitro fungal growth inhibition, Stagonospora nodorum (LEPTNO)
Format: cell-based
Details: Leptosphaeria; 25 ppm in growth medium; read-out: LEPTNO in vitro Growth Inhibition

How did the inhibition at 25 ppm turn out when `COc1ccnc(C(=O)Nc2cccc(Oc3ccc(Cl)cc3)c2)c1O` [Compound 440] was run?
Its inhibition at 25 ppm is > 80%.

`COC(=O)C(CO)NC(=O)c1nccc(OC)c1O` (centres unmarked) [Compound 340] was tested. Which inhibition at 25 ppm did it give?
The inhibition at 25 ppm was < 80%.

For `COc1ccnc(C(=O)NC2CCCC2=O)c1O` (centres unmarked) [Compound 249], which inhibition at 25 ppm is on record?
The inhibition at 25 ppm was < 80%.

Which inhibition at 25 ppm does the source give for `CCCCCCCCCNC(=O)c1ncccc1O` [Compound 201] here?
Its inhibition at 25 ppm is < 80%.

System: Leptosphaeria nodorum—LEPTNO
Experiment: Glume Blotch of Wheat, in vivo whole plant, 24 Hour Protectant
Details: 100 ppm spray, wheat, 24 hour protectant; control of fungal infection vs untreated plants

With `COc1ccnc(C(=O)Nc2cccc(Oc3ccc(Cl)cc3)c2)c1O` [Compound 440] as the compound, how does the “LEPTNO in vivo 1 Day Protectant” value read?
The value was “+ +”.

Same assay, conditions: Leptosphaeria; 100 ppm spray, 24 hour protectant, wheat; control of fungal infection vs untreated plants; read-out: LEPTNO in vivo 1 Day Protectant

`COc1ccnc(C(=O)NC2CCCC2=O)c1O` (centres unmarked) [Compound 249] was tested. Which pest or weed control at 100 ppm did it give?
Its pest or weed control at 100 ppm is 25 to 74%.

Which pest or weed control at 100 ppm does the source give for `CCCCCCCCCNC(=O)c1ncccc1O` [Compound 201] here?
The pest or weed control at 100 ppm was < 25%.

Same assay, conditions: Leptosphaeria; 100 ppm spray, wheat, 24 hour protectant; control of fungal infection vs untreated plants; read-out: LEPTNO in vivo 1 Day Protectant

`COC(=O)C(CO)NC(=O)c1nccc(OC)c1O` (centres unmarked) [Compound 340] was tested. Which pest or weed control at 100 ppm did it give?
The pest or weed control at 100 ppm was 25 to 74%.

System: Erysiphe graminis—ERYSGT
Experiment: Powdery Mildew of Wheat, in vivo whole plant, 24 Hour Protectant
Details: Erysiphe; 100 ppm spray, 24 hour protectant, wheat; control of fungal infection vs untreated plants; read-out: ERYSGT in vivo 1 Day Protectant

How did the pest or weed control at 100 ppm turn out when `COc1ccnc(C(=O)NC2CCCC2=O)c1O` (centres unmarked) [Compound 249] was run?
The pest or weed control at 100 ppm was < 25%.

How did the pest or weed control at 100 ppm turn out when `CCCCCCCCCNC(=O)c1ncccc1O` [Compound 201] was run?
The pest or weed control at 100 ppm was < 25%.

Same assay, conditions: Erysiphe; 100 ppm spray, wheat, 24 hour protectant; control of fungal infection vs untreated plants; read-out: ERYSGT in vivo 1 Day Protectant

`COc1ccnc(C(=O)Nc2cccc(Oc3ccc(Cl)cc3)c2)c1O` [Compound 440] was tested. Which pest or weed control at 100 ppm did it give?
The pest or weed control at 100 ppm was < 25%.

For `COC(=O)C(CO)NC(=O)c1nccc(OC)c1O` (centres unmarked) [Compound 340], which pest or weed control at 100 ppm is on record?
Its pest or weed control at 100 ppm is 25 to 74%.

System: Rhizoctonia solani (RHIZSO)
Experiment: microbe, parasite or virus in culture
Format: cell-based
Details: Rhizoctonia solani, read-out: RHIZSO in vitro Growth Inhibition

Which inhibition at 25 ppm does the source give for `COc1ccnc(C(=O)Nc2cccc(Oc3ccc(Cl)cc3)c2)c1O` [Compound 440] here?
The inhibition at 25 ppm was < 80%.

How did the inhibition at 25 ppm turn out when `COC(=O)C(CO)NC(=O)c1nccc(OC)c1O` (centres unmarked) [Compound 340] was run?
The inhibition at 25 ppm was < 80%.

How did the inhibition at 25 ppm turn out when `COc1ccnc(C(=O)NC2CCCC2=O)c1O` (centres unmarked) [Compound 249] was run?
The inhibition at 25 ppm was < 80%.

Which inhibition at 25 ppm does the source give for `CCCCCCCCCNC(=O)c1ncccc1O` [Compound 201] here?
Its inhibition at 25 ppm is < 80%.

System: Phytophthora infestans—PHYTIN
Experiment: whole plant or invertebrate
Format: in vivo
Details: Phytophthora, in Solanum lycopersicum, 24 h, read-out: PHYTIN in vivo 1 Day Protectant

For `COc1ccnc(C(=O)Nc2cccc(Oc3ccc(Cl)cc3)c2)c1O` [Compound 440], which pest or weed control at 100 ppm is on record?
The pest or weed control at 100 ppm was < 25%.

How did the pest or weed control at 100 ppm turn out when `COC(=O)C(CO)NC(=O)c1nccc(OC)c1O` (centres unmarked) [Compound 340] was run?
Its pest or weed control at 100 ppm is < 25%.

`COc1ccnc(C(=O)NC2CCCC2=O)c1O` (centres unmarked) [Compound 249] was tested. Which pest or weed control at 100 ppm did it give?
Its pest or weed control at 100 ppm is < 25%.

How did the pest or weed control at 100 ppm turn out when `CCCCCCCCCNC(=O)c1ncccc1O` [Compound 201] was run?
The pest or weed control at 100 ppm was < 25%.

System: Phytophthora infestans (PHYTIN)
Experiment: microbe, parasite or virus in culture
Format: cell-based
Details: Phytophthora infestans, read-out: PHYTIN in vitro Growth Inhibition

For `COc1ccnc(C(=O)Nc2cccc(Oc3ccc(Cl)cc3)c2)c1O` [Compound 440], which inhibition at 25 ppm is on record?
Its inhibition at 25 ppm is < 80%.

With `COC(=O)C(CO)NC(=O)c1nccc(OC)c1O` (centres unmarked) [Compound 340] as the compound, how does the inhibition at 25 ppm read?
The inhibition at 25 ppm was < 80%.

For `COc1ccnc(C(=O)NC2CCCC2=O)c1O` (centres unmarked) [Compound 249], which inhibition at 25 ppm is on record?
The inhibition at 25 ppm was < 80%.

`CCCCCCCCCNC(=O)c1ncccc1O` [Compound 201] was tested. Which inhibition at 25 ppm did it give?
Its inhibition at 25 ppm is < 80%.

System: Mycosphaerella graminicola (Septoria tritici—SEPTTR)
Experiment: In vitro fungal growth inhibition, Mycosphaerella graminicola (SEPTTR)
Format: cell-based
Details: Zymoseptoria tritici; 25 ppm in growth medium; read-out: SEPTTR in vitro Growth Inhibition

For `COc1ccnc(C(=O)Nc2cccc(Oc3ccc(Cl)cc3)c2)c1O` [Compound 440], which inhibition at 25 ppm is on record?
Its inhibition at 25 ppm is > 80%.

`COC(=O)C(CO)NC(=O)c1nccc(OC)c1O` (centres unmarked) [Compound 340] was tested. Which inhibition at 25 ppm did it give?
The inhibition at 25 ppm was < 80%.

With `COc1ccnc(C(=O)NC2CCCC2=O)c1O` (centres unmarked) [Compound 249] as the compound, how does the inhibition at 25 ppm read?
The inhibition at 25 ppm was < 80%.

For `CCCCCCCCCNC(=O)c1ncccc1O` [Compound 201], which inhibition at 25 ppm is on record?
Its inhibition at 25 ppm is < 80%.

System: Puccinia recondita—PUCCRT
Experiment: Brown Rust of Wheat, in vivo whole plant, 24 Hour Protectant
Details: Puccinia; 100 ppm spray, 24 hour protectant, wheat; control of fungal infection vs untreated plants; read-out: PUCCRT in vivo 1 Day Protectant

With `COc1ccnc(C(=O)NC2CCCC2=O)c1O` (centres unmarked) [Compound 249] as the compound, how does the pest or weed control at 100 ppm read?
The pest or weed control at 100 ppm was < 25%.

For `CCCCCCCCCNC(=O)c1ncccc1O` [Compound 201], which pest or weed control at 100 ppm is on record?
The pest or weed control at 100 ppm was < 25%.

Same assay, conditions: Puccinia; 100 ppm spray, wheat, 24 hour protectant; control of fungal infection vs untreated plants; read-out: PUCCRT in vivo 1 Day Protectant

`COc1ccnc(C(=O)Nc2cccc(Oc3ccc(Cl)cc3)c2)c1O` [Compound 440] was tested. Which pest or weed control at 100 ppm did it give?
Its pest or weed control at 100 ppm is 25 to 74%.

How did the pest or weed control at 100 ppm turn out when `COC(=O)C(CO)NC(=O)c1nccc(OC)c1O` (centres unmarked) [Compound 340] was run?
Its pest or weed control at 100 ppm is < 25%.

System: Ustilago maydis (USTIMA)
Experiment: microbe, parasite or virus in culture
Format: cell-based
Details: Mycosarcoma maydis, read-out: USTIMA in vitro Growth Inhibition

How did the inhibition at 25 ppm turn out when `COc1ccnc(C(=O)Nc2cccc(Oc3ccc(Cl)cc3)c2)c1O` [Compound 440] was run?
The inhibition at 25 ppm was < 80%.

`COC(=O)C(CO)NC(=O)c1nccc(OC)c1O` (centres unmarked) [Compound 340] was tested. Which inhibition at 25 ppm did it give?
The inhibition at 25 ppm was < 80%.

Which inhibition at 25 ppm does the source give for `COc1ccnc(C(=O)NC2CCCC2=O)c1O` (centres unmarked) [Compound 249] here?
The inhibition at 25 ppm was < 80%.

Which inhibition at 25 ppm does the source give for `CCCCCCCCCNC(=O)c1ncccc1O` [Compound 201] here?
Its inhibition at 25 ppm is < 80%.

System: Magnaporthe grisea (Pyricularia oryzae—PYRIOR)
Experiment: microbe, parasite or virus in culture
Format: cell-based
Details: Pyricularia oryzae, read-out: PYRIOR in vitro Growth Inhibition

How did the inhibition at 25 ppm turn out when `COc1ccnc(C(=O)Nc2cccc(Oc3ccc(Cl)cc3)c2)c1O` [Compound 440] was run?
Its inhibition at 25 ppm is > 80%.

How did the inhibition at 25 ppm turn out when `COC(=O)C(CO)NC(=O)c1nccc(OC)c1O` (centres unmarked) [Compound 340] was run?
Its inhibition at 25 ppm is < 80%.

For `COc1ccnc(C(=O)NC2CCCC2=O)c1O` (centres unmarked) [Compound 249], which inhibition at 25 ppm is on record?
The inhibition at 25 ppm was < 80%.

`CCCCCCCCCNC(=O)c1ncccc1O` [Compound 201] was tested. Which inhibition at 25 ppm did it give?
Its inhibition at 25 ppm is > 80%.
